# Assay results: patent US20180369186A1, “METHOD FOR MODULATING AUTOPHAGY AND APPLICATIONS THEREOF” (JAWAHARLAL NEHRU CENTRE FOR ADVANCED SCIENTIFIC RESEARCH, priority 2015, published 2018)
# Assays:
# GFP-Atg8 = GFP-Atg8 processing assay (general autophagy); format: cell-based, Saccharomyces cerevisiae
# Description: Saccharomyces cerevisiae strain containing the GFP-Atg8 (pRS 316 vector backbone) plasmid is grown in synthetic complete medium lacking uracil (SC-URA) under appropriate conditions (30° C. 250 rpm). From this, a secondary culture is inoculated at A600 nm=0.2 and grown as above until A600 nm reached ˜0.65. The cultures are transferred to SD-N (nitrogen starvation) medium at A600 nm=3, separately with and without the compounds, and samples are collected at different time intervals. Sample preparation is done by the TCA precipitation method and immunoblotting is performed using standard methods.
# Yeast strains (A600=3) are resuspended in trichloroacetic acid (12.5%) and stored at −80° C. for at least half an hour. Samples are thawed on ice, centrifuged (16000×g, 10 min) and pellet is washed twice with ice-cold acetone (80%). Pellets are air dried, resuspended in lysis (1% SDS and 0.1 N NaOH) solution and Laemmii buffer and boiled for 10 min.
# [1] = system: HeLa cells (autophagosomes and autolysosomes); assay: Tandem RFP-GFP-LC3B (traffic light) assay in HeLa cells; format: cell-based, human
# Description: Transfection is done on a 60 mm dish with HeLa cells at 60-70% confluency. Cells were transfected with tandem RFP-GFP-MAP1LC3B construct (Addgene plasmid #21074) using 5 μl of Lipofectamine 2000 (11668-019, Invitrogen) and 2.5 μg of DNA (2:1 ratio) diluted in 100 μl of OPTI-MEM (31985-070, Invitrogen) separately. 72 hours after transfection cells are either left untreated or treatment with various concentrations of Bay11-7082 ZPCK is done for 2 hours. Starvation is induced by treating cells with Earle's balanced salt solution (EBBS). After treatment, cells are fixed in 4% paraformaldehyde and permeabilized using 0.25% Triton X-100, The coverslip is mounted with […] antifade reagent (H-1000, Vector laboratories). Imaging for HeLa cells is carried out using Delta vision microscope (Olympus 60×/1.4, Plan ApoN, excitation and emission filter Cy5, FITC and TRITC, polychroic Quad).
# For tandem RFP-EGFP-LC3 assay, sub-confluent cells are seeded in 60 mm dishes, transfected with ptf LC3 construct and allowed to express for 24 h. Later, cells are trypsinized, reseeded (10^5 cells) and allowed to attach on cover slips in a 12 well plate.
# For mammalian cell microscopy, after 2 h of treatment, coverslips are fixed using 4% paraformaldehyde (PFA) (Sigma) and permeabilized using Triton X-100 (0.2%, HiMedia). Coverslips are mounted using antifade, Vectashield (Vector laboratories). For antibody staining, coverslips are blocked in 5% BSA for 1 h, incubated in primary antibody overnight and subsequent probing with fluorescent conjugated antibody. Coverslips are mounted using antifade, Vectashield (Vector laboratories).
# Images are acquired using DeltaVisionElitewidefield microscope (API, GE) with following filters: DAPI (390/18 and 435/48), FITC (490/20 and 529/38), TRITC (542/27 and 594/45) and Cy5 (632/22 and 676/34). Images are processed using DV SoftWoRX software. Autophagosome (yellow) and autolysosome (red) are counted using Cell Counter plug-in in ImageJ software (NIH) and graphically represented as fold difference versus untreated (FIG. 3E).
# Sub-confluent HeLa and/or SH-SY5Y cells are seeded into 60 mm cell culture dishes, then transfected with ptf LC3 construct and/or siRNA and allowed to express for 48 h. Cells are trypsinized, seeded again on poly-D-lysine coated cover slips in a 12 or 24 well plates and allowed to attach. After appropriate treatments, the coverslips containing cells are processed for imaging. For immunofluorescent antibody staining, the cover slips are incubated in primary antibody at 4° C. for overnight followed by secondary antibody incubation at room temperature.
# For imaging the mammalian cells, after appropriate treatments, coverslips containing cells are fixed using 4% paraformaldehyde (PFA) (Sigma) and then permeabilized using Triton X-100 (0.2%, HiMedia). On slide, coverslips are mounted using antifade, Vectashield mounting medium (Vector laboratories). For antibody staining, coverslips are blocked using 5% BSA for 1 h at room temperature, then incubated with primary antibody at 4° C., overnight and then subsequently probed with corresponding fluorescent dye conjugated secondary antibody.
# DAergic neurons in SNpc = assay: MPTP mouse model: LC3 and A11 puncta in DAergic neurons of SNpc; format: in vivo
# Description: The sequential immunolabeling procedure is used to co-label the TH and LC3 and/or A11. First, the midbrain sections are equilibrated with 0.1 M PBS (pH 7.4) for 10 min and then incubated with buffered bovine serum albumin (3%) for 4 h to block non-specific epitopes. Then, the sections are incubated in rabbit anti-LC3 antibody (1:1000) and/or anti-oligomer antibody (A11, 1:1000) for 72 h at 4° C. After subsequent washes, the sections are incubated in corresponding fluorescent secondary antibody (1:200) at 4° C., overnight.
# Co-labeling with TH is performed on the same sections using rabbit anti-TH antibody (1:500), followed by secondary labeling. PBST (0.01 M, pH 7.4) is used as both working and washing buffer. Sections are then mounted using Vectashield hardset mounting medium.
# [2] = HeLa, 2 h, 2.5 μM Bay11, 25 μM ZPCK
# [3] = starvation, 4 h and 6 h, 50 μM, versus untreated
# [4] = 5 mg/kg, co-administered with MPTP
# [5] = HeLa, ERRα Flag transfected 48 h, 5 μM, 2 h
structure (smiles),measurement,setting,value
"Cc1ccc(S(=O)(=O)/C=C/C#N)cc1 [Bay11, 3-[(4-methylphenyl)sulfonyl]-(2E)-propenenitrile]","GFP-Atg8 labelled autophagosomes, fluorescence microscopy",GFP-Atg8; starvation,accumulation of punctate structures outside the vacuole
same,release of GFP from GFP-Atg8 (general autophagy),GFP-Atg8; starvation,slower release of GFP
same,number of autolysosomes (mRFP+/GFP− puncta),[1]; [2],decreased
same,number of autophagosomes (mRFP+/GFP+ puncta),[1]; [2],decreased the number of autophagosomes
same,step of action relative to Bafilomycin A1 (BFA),"[1]; HeLa, with Bafilomycin A1 (400 nM)",step prior to BFA action
"O=C1Nc2cc(Br)ccc2/C1=C1/Nc2ccccc2/C1=N\O [6-Bio, (2′Z,3′E)-6-Bromoindirubin-3′-oxime]","autophagy induction / flux, growth condition","GFP-Atg8; growth condition, 6 h, 50 μM",dramatically induces autophagy
same,"increase in autophagic flux, growth condition","GFP-Atg8; growth condition, 50 μM, versus untreated",approximately 3 fold
same,"increase in autophagic flux, starvation condition",GFP-Atg8; [3],2 fold
same,"increase in autophagy induction, starvation condition",GFP-Atg8; [3],2 fold
same,fusion between autophagosomes and lysosomes at 16° C.,"[1]; HeLa, 16° C. (endocytosis reduced), control vs treated",~8 fold
same,fusion between autophagosomes and lysosomes at 37° C.,"[1]; HeLa, 37° C., control vs treated",~10 fold
same,autolysosomes in GSK3B silenced cells vs only treated cells,[1]; shRNA GSK3B silenced cells,significantly reduced
same,"LC3B puncta per neuron, MPTP vs MPTP+Co","DAergic neurons in SNpc; 5 mg/kg, co administered with MPTP","~2,5 fold"
same,"reduction in A11 positive toxic aggregates, MPTP vs MPTP+Co",DAergic neurons in SNpc; [4],~7 fold
same,p-GSK3B signals in DAergic neurons,DAergic neurons in SNpc; 6-Bio only and MPTP+Co cohorts,Reduced p-GSK3B signals
"COc1cc(C=C(C#N)C(=O)Nc2nnc(C(F)(F)F)s2)ccc1OCc1ccc(C(F)(F)F)cc1C(F)(F)F [XCT 790, 3-[4-(2,4-Bis-trifluoromethylbenzyloxy)-3-methoxyphenyl]-2-cyano-N-(5-trifluoromethyl-1,3,4-thiadiazol-2-yl)acrylamide]","autolysosome numbers, fold vs control","[1]; HeLa, 5 μM, 2 h",~2 fold
same,"autophagosomes, fold vs control","[1]; HeLa, 5 μM, 2 h",~5 fold
same,"less autolysosomes in ERRα over expressed cells, vs untreated",[1]; [5],~2 fold
same,"more autophagosomes in ERRα over expressed cells, vs untreated",[1]; [5],~2 fold
same,"LC3 puncta per neuron, compound only vs placebo/vehicle","DAergic neurons in SNpc; 5 mg/kg of body weight, compound only cohort",~3 fold
same,aggregates in compound only cohort vs vehicle,"DAergic neurons in SNpc; 5 mg/kg, XCT 790 only",comparable to that of vehicle cohort
same,"LC3 puncta per cell, vehicle vs MPTP+Co",DAergic neurons in SNpc; [4],~3 fold
same,"reduction in A11 positive toxic aggregates, MPTP vs MPTP+Co",DAergic neurons in SNpc; [4],~6 fold
